Reference: patent US20120184613A1, “SULFUR-CONTAINING COMPOUND AND USE THEREOF” (SUMITOMO CHEMICAL COMPANY, LIMITED, priority 2008, published 2012)

Tested on: Blattalla germanica
Assay: Test Example 3: filter paper with sucrose bait, death rate of Blattalla germanica
Type: in vivo
Conditions: 500 ppm test solution, 0.7 ml on filter paper; 2 male imagoes; after 6 days
Experimental: A formulation of any one of the present compounds (3) and (4) obtained according to Formulation Example 5 was diluted with water to prepare a test solution having 500 ppm of the active ingredient.
A filter paper having a diameter of 5.5 cm was spread on the bottom of a polyethylene cup having a diameter of 5.5 cm and 0.7 ml of the test solution was added dropwise onto the filter paper. As a bait, 30 mg of sucrose was uniformly placed on the filter paper. Into the polyethylene cup, 2 male imagoes of Blattalla germanica were released and the cup was sealed with a lid. After 6 days, the number of surviving or dead Blattalla germanica was counted and the death rate of the pest was calculated.

CC(C)OCCS(=O)(=O)C(C#N)CCC(F)(F)C(F)(F)F (centres unmarked) [(3)]
pest death rate: 100%

COC(C)(C)CS(=O)(=O)C(C#N)CCC(F)(F)C(F)(F)F (centres unmarked) [(4)]
pest death rate: 100%
